Results as given in ChEMBL document CHEMBL2010722, “Structure-activity relationship study of beta-carboline derivatives as haspin kinase inhibitors” (Bioorg Med Chem Lett, 2012).

What was measured:
[1] = target: Mitogen-activated protein kinase 12 (Homo sapiens) (UniProt P53778); experiment: Inhibition of p38gamma at 10 uM
[2] = target: Hepatocyte growth factor receptor (Homo sapiens) (UniProt P08581); experiment: Inhibition of MET at 10 uM
[3] = target: Serine/threonine-protein kinase Sgk2 (Homo sapiens) (UniProt Q9HBY8); experiment: Inhibition of SGK2 at 10 uM
[4] = target: ALK tyrosine kinase receptor (Homo sapiens) (UniProt Q9UM73); experiment: Inhibition of ALK at 10 uM
[5] = system: ALK tyrosine kinase receptor (Homo sapiens), Q9UM73 [R1275Q]; experiment: Inhibition of ALK R1275Q mutant at 10 uM
[6] = target: Leukocyte tyrosine kinase receptor (Homo sapiens) (UniProt P29376); experiment: Inhibition of LTK at 10 uM
[7] = target: Serine/threonine-protein kinase MARK2 (Homo sapiens) (UniProt Q7KZI7); experiment: Inhibition of MARK2 at 10 uM
[8] = target: Ephrin type-A receptor 4 (Homo sapiens) (UniProt P54764); experiment: Inhibition of EPHA4 at 10 uM
[9] = system: Tyrosine-protein kinase ABL1 (Homo sapiens), P00519 [T315I]; experiment: Inhibition of ABL T315I mutant at 10 uM
[10] = target: Ephrin type-B receptor 4 (Homo sapiens) (UniProt P54760); experiment: Inhibition of EPHB4 at 10 uM
Ephrin type-B receptor 4 (Homo sapiens), sequence (P54760 whole entry): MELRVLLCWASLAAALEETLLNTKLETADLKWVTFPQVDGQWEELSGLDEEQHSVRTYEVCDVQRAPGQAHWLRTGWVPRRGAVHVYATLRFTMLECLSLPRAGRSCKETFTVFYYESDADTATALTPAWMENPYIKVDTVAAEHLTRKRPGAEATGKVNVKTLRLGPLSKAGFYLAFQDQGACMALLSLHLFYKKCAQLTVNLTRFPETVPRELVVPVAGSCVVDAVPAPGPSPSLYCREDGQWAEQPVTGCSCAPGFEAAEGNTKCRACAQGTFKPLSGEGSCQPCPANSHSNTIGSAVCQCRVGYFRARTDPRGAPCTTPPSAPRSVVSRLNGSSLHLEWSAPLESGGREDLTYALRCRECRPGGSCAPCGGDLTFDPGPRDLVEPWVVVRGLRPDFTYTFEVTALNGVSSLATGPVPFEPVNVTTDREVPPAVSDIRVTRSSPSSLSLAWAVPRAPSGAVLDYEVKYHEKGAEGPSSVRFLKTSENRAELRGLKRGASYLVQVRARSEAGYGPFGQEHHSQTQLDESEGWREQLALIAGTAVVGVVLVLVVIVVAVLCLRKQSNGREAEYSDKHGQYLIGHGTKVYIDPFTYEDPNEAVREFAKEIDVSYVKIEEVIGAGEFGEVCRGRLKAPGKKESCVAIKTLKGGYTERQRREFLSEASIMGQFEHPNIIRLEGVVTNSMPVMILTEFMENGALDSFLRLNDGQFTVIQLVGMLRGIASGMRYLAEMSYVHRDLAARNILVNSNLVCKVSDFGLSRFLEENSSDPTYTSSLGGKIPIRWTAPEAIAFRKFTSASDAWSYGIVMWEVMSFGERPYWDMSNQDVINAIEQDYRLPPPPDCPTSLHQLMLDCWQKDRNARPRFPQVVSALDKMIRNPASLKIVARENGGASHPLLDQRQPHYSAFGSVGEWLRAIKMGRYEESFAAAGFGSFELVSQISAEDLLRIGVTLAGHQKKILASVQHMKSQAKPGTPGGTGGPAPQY

[11] = target: Casein kinase II alpha/beta (Homo sapiens) (UniProt P67870+P68400); experiment: Inhibition of CK2a1/b at 10 uM; assay type: protein-complex assay
[12] = target: Macrophage-stimulating protein receptor (Homo sapiens) (UniProt Q04912); experiment: Inhibition of RON at 10 uM
[13] = target: Ribosomal protein S6 kinase alpha-5 (Homo sapiens) (UniProt O75582); experiment: Inhibition of MSK1 N-terminal at 10 uM
Ribosomal protein S6 kinase alpha-5 (Homo sapiens), sequence (O75582 whole entry, looked up): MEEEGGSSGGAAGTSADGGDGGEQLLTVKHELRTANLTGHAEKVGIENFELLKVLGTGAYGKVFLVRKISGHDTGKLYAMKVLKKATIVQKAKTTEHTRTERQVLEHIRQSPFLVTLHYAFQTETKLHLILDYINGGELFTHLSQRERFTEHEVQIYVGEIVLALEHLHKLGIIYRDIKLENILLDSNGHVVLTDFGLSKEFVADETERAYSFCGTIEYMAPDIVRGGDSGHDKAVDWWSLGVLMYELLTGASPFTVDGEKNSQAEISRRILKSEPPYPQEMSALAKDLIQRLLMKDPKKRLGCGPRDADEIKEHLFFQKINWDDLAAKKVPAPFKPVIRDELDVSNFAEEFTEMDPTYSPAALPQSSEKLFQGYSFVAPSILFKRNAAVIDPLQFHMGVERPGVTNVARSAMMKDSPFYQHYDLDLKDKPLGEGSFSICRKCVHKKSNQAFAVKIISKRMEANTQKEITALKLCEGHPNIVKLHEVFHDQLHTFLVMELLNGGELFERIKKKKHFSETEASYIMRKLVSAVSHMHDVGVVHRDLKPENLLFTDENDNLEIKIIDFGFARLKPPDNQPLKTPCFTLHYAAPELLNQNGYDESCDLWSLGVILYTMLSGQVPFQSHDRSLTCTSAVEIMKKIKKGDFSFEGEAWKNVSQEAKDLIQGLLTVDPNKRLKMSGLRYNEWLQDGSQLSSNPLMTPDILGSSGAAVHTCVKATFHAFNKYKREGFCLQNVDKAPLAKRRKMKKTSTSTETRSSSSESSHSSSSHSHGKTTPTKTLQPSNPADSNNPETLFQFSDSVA

[14] = target: Ribosomal protein S6 kinase alpha-2 (Homo sapiens) (UniProt Q15349); experiment: Inhibition of RSK3 N-terminal at 10 uM
[15] = target: Dual specificity mitogen-activated protein kinase kinase 3 (Homo sapiens) (UniProt P46734); experiment: Inhibition of MAP2K3 at 10 uM
[16] = target: Testis-specific serine/threonine-protein kinase 2 (Homo sapiens) (UniProt Q96PF2); experiment: Inhibition of TSSK2 at 10 uM
[17] = target: Serine/threonine-protein kinase MRCK alpha (Homo sapiens) (UniProt Q5VT25); experiment: Inhibition of MRCKa at 10 uM
[18] = target: Mitogen-activated protein kinase 3 (Homo sapiens) (UniProt P27361); experiment: Inhibition of Erk1 at 10 uM
[19] = target: Calcium/calmodulin-dependent protein kinase type II subunit gamma (Homo sapiens) (UniProt Q13555); experiment: Inhibition of CaMK2g at 10 uM
Calcium/calmodulin-dependent protein kinase type II subunit gamma (Homo sapiens), sequence (Q13555 whole entry): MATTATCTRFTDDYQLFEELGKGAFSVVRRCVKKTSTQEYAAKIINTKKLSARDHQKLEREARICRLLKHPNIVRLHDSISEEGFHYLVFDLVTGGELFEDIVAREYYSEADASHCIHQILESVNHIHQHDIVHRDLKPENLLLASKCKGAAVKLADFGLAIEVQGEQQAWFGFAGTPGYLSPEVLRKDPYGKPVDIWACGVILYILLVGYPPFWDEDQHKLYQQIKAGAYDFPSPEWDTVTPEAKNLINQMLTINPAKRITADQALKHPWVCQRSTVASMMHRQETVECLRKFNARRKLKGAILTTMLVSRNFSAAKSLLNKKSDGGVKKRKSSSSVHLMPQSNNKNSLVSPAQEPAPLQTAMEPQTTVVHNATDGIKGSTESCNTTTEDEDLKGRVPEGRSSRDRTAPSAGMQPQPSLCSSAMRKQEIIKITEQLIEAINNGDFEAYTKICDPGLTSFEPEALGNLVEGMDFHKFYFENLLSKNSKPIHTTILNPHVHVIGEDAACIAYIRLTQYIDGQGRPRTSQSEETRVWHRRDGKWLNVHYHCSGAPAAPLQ

[20] = target: Receptor tyrosine-protein kinase erbB-4 (Homo sapiens) (UniProt Q15303); experiment: Inhibition of HER4 at 10 uM
[21] = target: Serine/threonine-protein kinase 10 (Homo sapiens) (UniProt O94804); experiment: Inhibition of LOK at 10 uM
[22] = target: Ephrin type-A receptor 1 (Homo sapiens) (UniProt P21709); experiment: Inhibition of EPHA1 at 10 uM
[23] = target: TAK1/TAB1 (Homo sapiens) (UniProt Q15750+O43318); experiment: Inhibition of TAK1-TAB1 at 10 uM; assay type: protein-complex assay
[24] = target: Serine/threonine-protein kinase Nek7 (Homo sapiens) (UniProt Q8TDX7); experiment: Inhibition of NEK7 at 10 uM
Serine/threonine-protein kinase Nek7 (Homo sapiens), sequence (Q8TDX7 whole entry, looked up): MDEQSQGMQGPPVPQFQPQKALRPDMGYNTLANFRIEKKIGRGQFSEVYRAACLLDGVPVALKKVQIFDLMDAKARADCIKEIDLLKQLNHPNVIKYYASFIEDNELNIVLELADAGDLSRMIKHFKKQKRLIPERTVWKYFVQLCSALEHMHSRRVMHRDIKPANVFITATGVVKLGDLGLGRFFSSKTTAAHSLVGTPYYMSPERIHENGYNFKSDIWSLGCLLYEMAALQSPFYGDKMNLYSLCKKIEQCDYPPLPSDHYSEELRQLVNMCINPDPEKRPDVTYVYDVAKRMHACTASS

[25] = target: RAF proto-oncogene serine/threonine-protein kinase (Homo sapiens) (UniProt P04049); experiment: Inhibition of RAF1 at 10 uM
[26] = system: Fibroblast growth factor receptor 3 (Homo sapiens), P22607 [K650E]; experiment: Inhibition of FGFR3 K650E mutant at 10 uM
[27] = target: MAP kinase-activated protein kinase 3 (Homo sapiens) (UniProt Q16644); experiment: Inhibition of MAPKAPK3 at 10 uM
[28] = target: Mitogen-activated protein kinase 7 (Homo sapiens) (UniProt Q13164); experiment: Inhibition of Erk5 at 10 uM
[29] = target: Tyrosine-protein kinase JAK2 (Homo sapiens) (UniProt O60674); experiment: Inhibition of JAK2 at 10 uM
Tyrosine-protein kinase JAK2 (Homo sapiens), sequence (O60674 whole entry): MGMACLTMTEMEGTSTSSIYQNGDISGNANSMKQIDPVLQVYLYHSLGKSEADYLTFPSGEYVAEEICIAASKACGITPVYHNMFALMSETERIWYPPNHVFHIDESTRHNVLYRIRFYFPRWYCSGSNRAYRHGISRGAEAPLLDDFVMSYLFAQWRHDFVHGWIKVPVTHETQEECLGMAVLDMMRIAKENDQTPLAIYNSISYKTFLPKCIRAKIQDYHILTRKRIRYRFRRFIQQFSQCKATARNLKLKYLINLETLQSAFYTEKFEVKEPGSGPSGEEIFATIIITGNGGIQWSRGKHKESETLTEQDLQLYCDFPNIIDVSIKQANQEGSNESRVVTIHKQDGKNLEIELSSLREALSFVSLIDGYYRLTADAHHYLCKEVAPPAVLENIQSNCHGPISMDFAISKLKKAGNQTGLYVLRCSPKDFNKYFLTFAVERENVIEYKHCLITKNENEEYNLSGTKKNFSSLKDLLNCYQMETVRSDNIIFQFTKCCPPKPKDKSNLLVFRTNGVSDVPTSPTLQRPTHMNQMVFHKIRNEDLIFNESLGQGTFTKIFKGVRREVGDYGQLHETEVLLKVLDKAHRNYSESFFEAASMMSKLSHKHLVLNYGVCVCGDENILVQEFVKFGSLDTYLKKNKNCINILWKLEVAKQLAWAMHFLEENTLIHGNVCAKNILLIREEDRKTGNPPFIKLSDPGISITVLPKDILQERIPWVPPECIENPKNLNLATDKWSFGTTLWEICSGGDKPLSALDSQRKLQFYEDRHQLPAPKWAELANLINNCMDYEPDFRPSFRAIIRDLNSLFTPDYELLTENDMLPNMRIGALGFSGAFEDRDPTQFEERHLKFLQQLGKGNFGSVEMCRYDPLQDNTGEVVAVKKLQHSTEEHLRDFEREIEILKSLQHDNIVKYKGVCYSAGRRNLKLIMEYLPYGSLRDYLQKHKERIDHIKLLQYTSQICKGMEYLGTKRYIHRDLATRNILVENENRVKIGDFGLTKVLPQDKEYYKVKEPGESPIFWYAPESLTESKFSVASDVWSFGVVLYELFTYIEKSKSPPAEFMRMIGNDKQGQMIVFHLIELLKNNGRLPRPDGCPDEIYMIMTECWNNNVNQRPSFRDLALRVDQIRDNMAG

[30] = target: Ribosomal protein S6 kinase alpha-4 (Homo sapiens) (UniProt O75676); experiment: Inhibition of MSK2 N-terminal at 10 uM
[31] = target: NUAK family SNF1-like kinase 1 (Homo sapiens) (UniProt O60285); experiment: Inhibition of NuaK1 at 10 uM
[32] = target: Serine/threonine-protein kinase MARK1 (Homo sapiens) (UniProt Q9P0L2); experiment: Inhibition of MARK1 at 10 uM
[33] = target: Serine/threonine-protein kinase PAK 6 (Homo sapiens) (UniProt Q9NQU5); experiment: Inhibition of PAK6 at 10 uM
[34] = target: Mitogen-activated protein kinase kinase kinase 11 (Homo sapiens) (UniProt Q16584); experiment: Inhibition of MLK3 at 10 uM
[35] = target: Macrophage colony-stimulating factor 1 receptor (Homo sapiens) (UniProt P07333); experiment: Inhibition of FMS at 10 uM
[36] = target: Tyrosine-protein kinase ABL2 (Homo sapiens) (UniProt P42684); experiment: Inhibition of ARG at 10 uM
[37] = target: Serine/threonine-protein kinase N1 (Homo sapiens) (UniProt Q16512); experiment: Inhibition of PKN1 at 10 uM
[38] = target: cAMP-dependent protein kinase catalytic subunit beta (Homo sapiens) (UniProt P22694); experiment: Inhibition of PKACb (PRKACB) at 10 uM
[39] = target: Mitogen-activated protein kinase kinase kinase kinase 4 (Homo sapiens) (UniProt O95819); experiment: Inhibition of HGK at 10 uM
[40] = target: Casein kinase I isoform gamma-1 (Homo sapiens) (UniProt Q9HCP0); experiment: Inhibition of CK1g1 at 10 uM
[41] = target: Dual specificity mitogen-activated protein kinase kinase 5 (Homo sapiens) (UniProt Q13163); experiment: Inhibition of MAP2K5 at 10 uM
Dual specificity mitogen-activated protein kinase kinase 5 (Homo sapiens), sequence (Q13163 whole entry): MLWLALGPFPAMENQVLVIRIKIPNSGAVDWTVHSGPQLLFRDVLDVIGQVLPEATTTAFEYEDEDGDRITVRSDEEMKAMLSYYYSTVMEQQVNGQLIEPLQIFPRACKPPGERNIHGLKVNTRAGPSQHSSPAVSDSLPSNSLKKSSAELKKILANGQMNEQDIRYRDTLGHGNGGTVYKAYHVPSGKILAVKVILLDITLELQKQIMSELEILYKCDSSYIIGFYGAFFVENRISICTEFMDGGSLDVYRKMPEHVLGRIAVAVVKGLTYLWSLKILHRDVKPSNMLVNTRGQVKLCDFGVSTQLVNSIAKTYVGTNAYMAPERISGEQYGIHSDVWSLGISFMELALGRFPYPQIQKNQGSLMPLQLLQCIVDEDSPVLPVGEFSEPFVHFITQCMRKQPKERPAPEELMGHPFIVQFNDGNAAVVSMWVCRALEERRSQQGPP

[42] = target: Protein kinase C eta type (Homo sapiens) (UniProt P24723); experiment: Inhibition of PKCh at 10 uM
Protein kinase C eta type (Homo sapiens), sequence (P24723 whole entry): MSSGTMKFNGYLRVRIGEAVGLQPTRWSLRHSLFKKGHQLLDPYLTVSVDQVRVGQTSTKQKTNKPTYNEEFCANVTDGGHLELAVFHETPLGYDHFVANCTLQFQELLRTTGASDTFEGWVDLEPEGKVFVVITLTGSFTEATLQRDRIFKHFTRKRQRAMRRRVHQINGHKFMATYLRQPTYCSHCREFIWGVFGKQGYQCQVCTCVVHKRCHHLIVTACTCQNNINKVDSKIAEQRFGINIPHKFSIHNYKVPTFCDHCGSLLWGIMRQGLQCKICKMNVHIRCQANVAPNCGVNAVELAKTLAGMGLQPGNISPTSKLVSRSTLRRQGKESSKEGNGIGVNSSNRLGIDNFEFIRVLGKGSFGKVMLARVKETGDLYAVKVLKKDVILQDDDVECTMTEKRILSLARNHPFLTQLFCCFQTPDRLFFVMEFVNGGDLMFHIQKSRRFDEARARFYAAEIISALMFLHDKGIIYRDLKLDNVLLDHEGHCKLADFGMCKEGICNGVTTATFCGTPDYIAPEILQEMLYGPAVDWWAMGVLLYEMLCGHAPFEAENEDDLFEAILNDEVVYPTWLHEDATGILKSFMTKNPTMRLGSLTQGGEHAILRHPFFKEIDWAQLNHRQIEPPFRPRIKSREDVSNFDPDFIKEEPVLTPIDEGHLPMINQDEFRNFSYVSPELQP

COc1ccc2c3ccnc(C(F)(F)F)c3n(CCCCN)c2c1
inhibition [1]: 66%
inhibition [2]: 4%
inhibition [3]: 20%
inhibition [4]: 5%
inhibition [5]: 6%
inhibition [6]: 5%
inhibition [7]: 52%
inhibition [8]: 0%
inhibition [9]: 0%
inhibition [10]: 0%
inhibition [11]: 0%
inhibition [12]: 0%
inhibition [13]: 36%
inhibition [14]: 36%
inhibition [15]: 38%
inhibition [16]: 5%
inhibition [17]: 18%
inhibition [18]: 2%
inhibition [19]: 78%
inhibition [20]: 25%
inhibition [21]: 20%
inhibition [22]: 4%
inhibition [23]: 12%
inhibition [24]: 0%
inhibition [25]: 0%
inhibition [26]: 3%
inhibition [27]: 1%
inhibition [28]: 21%
inhibition [29]: 0%
inhibition [30]: 16%
inhibition [31]: 30%
inhibition [32]: 48%
inhibition [33]: 13%
inhibition [34]: 3%
inhibition [35]: 6%
inhibition [36]: 0%
inhibition [37]: 52%
inhibition [38]: 41%
inhibition [39]: 62%
inhibition [40]: 66%
inhibition [41]: 1%
inhibition [42]: 77%
